Data: US8207293B2, “Peptides derived from maurocalcine used as vectors for intracellular addressing of molecules of interest” (Commissariat a l'Energie Atomique, priority 2004, dated 2012)

Experiments:
RyR1 receptor = biological target: T1, RyR1 receptor (Oryctolagus cuniculus, UniProt P11716); assay: Ca2+ release by heavy sarcoplasmic reticulum vesicles (antipyrylazo III); assay type: biochemical; conditions: 100 nM complex
T1 construct: from tissue; host or cells: heavy sarcoplasmic reticulum vesicles (skeletal muscle implied)
T1 sequence (P11716 whole entry): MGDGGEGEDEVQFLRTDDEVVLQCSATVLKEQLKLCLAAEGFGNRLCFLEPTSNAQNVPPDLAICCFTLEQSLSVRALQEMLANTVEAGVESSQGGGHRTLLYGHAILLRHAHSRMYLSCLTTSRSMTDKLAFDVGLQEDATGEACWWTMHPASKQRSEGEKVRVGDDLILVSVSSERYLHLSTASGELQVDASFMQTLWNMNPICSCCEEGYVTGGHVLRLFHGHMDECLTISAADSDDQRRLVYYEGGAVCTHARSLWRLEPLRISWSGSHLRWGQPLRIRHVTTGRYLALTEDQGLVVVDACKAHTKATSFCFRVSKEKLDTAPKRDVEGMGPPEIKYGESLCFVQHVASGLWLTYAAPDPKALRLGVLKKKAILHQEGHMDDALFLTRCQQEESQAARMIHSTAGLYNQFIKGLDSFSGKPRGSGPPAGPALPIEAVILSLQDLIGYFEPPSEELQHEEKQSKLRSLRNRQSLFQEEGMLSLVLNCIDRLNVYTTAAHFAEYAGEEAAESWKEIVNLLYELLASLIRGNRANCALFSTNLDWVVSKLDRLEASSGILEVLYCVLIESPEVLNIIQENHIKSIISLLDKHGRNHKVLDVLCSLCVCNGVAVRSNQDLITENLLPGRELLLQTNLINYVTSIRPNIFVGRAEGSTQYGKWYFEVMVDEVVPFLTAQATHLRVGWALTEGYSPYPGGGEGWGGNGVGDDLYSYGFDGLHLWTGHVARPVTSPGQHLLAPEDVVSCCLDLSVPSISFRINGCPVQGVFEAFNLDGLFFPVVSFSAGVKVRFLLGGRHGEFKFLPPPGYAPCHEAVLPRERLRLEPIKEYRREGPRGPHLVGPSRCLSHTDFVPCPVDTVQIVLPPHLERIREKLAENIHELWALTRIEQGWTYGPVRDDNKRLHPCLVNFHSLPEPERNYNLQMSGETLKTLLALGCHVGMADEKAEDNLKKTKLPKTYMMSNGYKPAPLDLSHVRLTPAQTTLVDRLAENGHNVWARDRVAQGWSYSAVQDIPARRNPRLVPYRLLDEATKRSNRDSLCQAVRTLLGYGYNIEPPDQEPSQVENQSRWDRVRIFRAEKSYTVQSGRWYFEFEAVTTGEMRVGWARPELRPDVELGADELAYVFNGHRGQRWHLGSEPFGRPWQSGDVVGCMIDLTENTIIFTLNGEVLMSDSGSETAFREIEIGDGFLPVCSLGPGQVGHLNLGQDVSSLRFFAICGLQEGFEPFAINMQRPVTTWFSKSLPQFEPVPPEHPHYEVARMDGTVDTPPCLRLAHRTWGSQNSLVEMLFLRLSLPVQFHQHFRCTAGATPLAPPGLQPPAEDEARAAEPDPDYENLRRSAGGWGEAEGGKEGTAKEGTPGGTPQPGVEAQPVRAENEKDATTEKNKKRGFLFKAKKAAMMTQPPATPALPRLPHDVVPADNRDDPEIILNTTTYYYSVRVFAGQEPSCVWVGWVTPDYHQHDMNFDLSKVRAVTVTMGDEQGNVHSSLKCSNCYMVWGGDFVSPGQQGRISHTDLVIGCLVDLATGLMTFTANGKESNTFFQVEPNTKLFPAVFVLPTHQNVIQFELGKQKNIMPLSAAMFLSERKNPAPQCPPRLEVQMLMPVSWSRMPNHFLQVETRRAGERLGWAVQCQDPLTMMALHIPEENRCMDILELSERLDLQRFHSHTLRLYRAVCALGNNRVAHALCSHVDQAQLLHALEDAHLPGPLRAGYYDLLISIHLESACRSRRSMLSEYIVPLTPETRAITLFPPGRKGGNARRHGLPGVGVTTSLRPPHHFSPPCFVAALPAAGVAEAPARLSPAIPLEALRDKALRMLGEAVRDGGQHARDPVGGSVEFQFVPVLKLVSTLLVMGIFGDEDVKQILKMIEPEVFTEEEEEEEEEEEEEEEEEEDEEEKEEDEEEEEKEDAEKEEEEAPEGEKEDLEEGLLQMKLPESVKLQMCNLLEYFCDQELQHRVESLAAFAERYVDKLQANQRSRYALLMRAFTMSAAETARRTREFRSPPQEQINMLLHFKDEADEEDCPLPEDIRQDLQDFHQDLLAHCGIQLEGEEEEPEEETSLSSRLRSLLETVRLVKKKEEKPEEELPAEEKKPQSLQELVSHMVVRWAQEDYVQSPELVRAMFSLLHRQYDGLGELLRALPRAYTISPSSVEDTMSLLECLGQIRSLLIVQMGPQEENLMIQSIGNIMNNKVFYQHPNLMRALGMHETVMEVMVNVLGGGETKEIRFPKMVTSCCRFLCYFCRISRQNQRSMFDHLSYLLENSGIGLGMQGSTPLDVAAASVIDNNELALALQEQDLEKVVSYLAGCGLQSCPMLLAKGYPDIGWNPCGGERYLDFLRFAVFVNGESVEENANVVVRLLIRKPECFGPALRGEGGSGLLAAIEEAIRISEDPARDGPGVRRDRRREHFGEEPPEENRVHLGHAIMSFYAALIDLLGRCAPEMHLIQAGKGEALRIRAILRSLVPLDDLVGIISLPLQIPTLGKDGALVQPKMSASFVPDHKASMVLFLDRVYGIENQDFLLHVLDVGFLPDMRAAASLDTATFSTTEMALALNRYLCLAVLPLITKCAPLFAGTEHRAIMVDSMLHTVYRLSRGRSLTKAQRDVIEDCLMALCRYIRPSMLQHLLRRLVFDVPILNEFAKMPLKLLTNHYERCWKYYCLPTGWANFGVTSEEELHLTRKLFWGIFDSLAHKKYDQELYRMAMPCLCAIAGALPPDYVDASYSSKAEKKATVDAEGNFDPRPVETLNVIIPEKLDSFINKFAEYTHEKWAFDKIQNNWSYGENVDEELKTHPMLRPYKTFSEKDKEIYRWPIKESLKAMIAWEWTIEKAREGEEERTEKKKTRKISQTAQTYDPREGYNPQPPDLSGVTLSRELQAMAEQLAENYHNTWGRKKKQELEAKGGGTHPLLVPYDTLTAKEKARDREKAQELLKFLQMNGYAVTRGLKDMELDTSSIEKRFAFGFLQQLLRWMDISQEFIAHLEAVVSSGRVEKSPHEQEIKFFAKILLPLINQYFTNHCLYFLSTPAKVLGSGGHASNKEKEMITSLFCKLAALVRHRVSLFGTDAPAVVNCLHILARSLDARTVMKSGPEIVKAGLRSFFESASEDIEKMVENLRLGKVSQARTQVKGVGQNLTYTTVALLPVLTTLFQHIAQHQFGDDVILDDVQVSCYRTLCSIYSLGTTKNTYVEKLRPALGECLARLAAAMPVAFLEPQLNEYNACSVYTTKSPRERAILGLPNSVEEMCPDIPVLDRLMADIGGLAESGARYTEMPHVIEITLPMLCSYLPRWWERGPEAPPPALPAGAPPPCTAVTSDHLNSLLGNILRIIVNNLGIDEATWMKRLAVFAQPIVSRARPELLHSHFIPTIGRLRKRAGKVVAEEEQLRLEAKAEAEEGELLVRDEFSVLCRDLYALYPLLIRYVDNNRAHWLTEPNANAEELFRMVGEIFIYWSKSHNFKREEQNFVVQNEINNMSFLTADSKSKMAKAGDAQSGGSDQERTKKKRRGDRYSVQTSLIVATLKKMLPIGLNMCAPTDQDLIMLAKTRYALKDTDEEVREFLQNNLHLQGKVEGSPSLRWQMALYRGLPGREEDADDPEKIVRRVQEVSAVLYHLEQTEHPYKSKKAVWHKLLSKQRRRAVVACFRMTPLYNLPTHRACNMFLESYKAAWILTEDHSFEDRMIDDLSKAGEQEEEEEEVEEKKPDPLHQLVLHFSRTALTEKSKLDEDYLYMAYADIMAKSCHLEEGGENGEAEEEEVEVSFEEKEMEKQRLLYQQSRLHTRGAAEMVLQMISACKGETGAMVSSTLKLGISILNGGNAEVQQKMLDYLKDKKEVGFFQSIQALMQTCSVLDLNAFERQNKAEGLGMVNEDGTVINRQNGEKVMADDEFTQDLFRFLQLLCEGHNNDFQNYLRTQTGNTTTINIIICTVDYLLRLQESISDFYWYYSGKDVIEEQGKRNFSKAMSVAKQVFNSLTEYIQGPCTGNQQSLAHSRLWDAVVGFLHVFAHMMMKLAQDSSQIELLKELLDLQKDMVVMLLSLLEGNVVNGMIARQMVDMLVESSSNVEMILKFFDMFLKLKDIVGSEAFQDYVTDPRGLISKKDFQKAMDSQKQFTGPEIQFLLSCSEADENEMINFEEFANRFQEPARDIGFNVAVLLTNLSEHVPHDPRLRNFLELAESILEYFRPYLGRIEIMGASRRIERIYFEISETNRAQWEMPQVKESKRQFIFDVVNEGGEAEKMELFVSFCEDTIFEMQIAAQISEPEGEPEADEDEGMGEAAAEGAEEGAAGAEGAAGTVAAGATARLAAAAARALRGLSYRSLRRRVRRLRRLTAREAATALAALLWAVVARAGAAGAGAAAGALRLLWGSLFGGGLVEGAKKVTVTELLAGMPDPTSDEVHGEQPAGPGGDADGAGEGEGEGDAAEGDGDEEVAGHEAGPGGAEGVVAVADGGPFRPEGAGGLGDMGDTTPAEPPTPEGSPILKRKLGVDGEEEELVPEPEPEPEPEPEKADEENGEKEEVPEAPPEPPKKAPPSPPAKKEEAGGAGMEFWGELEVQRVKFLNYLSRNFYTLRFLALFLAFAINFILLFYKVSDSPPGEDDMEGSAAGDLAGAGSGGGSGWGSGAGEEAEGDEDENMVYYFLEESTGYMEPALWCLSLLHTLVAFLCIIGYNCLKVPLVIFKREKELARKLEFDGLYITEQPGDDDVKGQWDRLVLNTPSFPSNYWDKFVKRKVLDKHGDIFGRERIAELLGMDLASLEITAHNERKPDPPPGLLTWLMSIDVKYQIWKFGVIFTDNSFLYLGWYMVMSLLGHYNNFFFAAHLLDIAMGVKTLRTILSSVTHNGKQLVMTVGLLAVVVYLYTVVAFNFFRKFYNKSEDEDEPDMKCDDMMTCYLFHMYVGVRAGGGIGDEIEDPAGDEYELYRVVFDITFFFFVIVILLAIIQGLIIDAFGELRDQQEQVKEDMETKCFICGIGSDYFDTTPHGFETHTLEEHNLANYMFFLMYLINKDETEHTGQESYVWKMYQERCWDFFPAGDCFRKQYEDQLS
Method: The heavy sarcoplasmic reticulum vesicles are prepared according to the method of Kim et al. (J. Biol. Chem., 1983, 258, 9662-9668) modified as described in Marty et al. (J. Biol. Chem., 2000, 275, 8206-8212). The protein concentration is measured by the Biuret method.
The Ca^2+ release by the heavy sarcoplasmic reticulum vesicles was measured using a Ca^2+-sensitive dye, antipyrylazo III. The absorbance was measured at 710 nm, using a diode-array spectrophotometer (MOS-200, Optical System, BIOLOGIC). The heavy sarcoplasmic reticulum vesicles (50 μg) were actively loaded with Ca^2+, at 37° C., in 2 ml of buffer containing 100 mM KCl, 7.5 mM sodium pyrophosphate, 20 mM MOPS, pH 7.0, to which 250 μM of antipyrylazo III, 1 mM ATP/MgCl2, 5 mM phosphocreatine and 12 μg/ml of creatine phosphokinase had been added (Palade, J. Biol. Chem., 1987, 262, 6142-6148).
The calcium loading begins with sequential additions of 50 μM and 20 μM CaCl2.
Under these loading conditions, no calcium-induced calcium release interferes with the observations. At the end of each experiment, the Ca^2+ remaining in the vesicles is measured by the addition of 4 μM of Ca^2+ ionophore, […] (Sigma), and the absorbance signal is calibrated by means of two consecutive additions of 20 μM CaCl2.

HEK293 cells [1] = assay: Cell penetration and subcellular distribution of complexes in HEK293 cells, confocal microscopy; assay type: cell-based, human; conditions: for cellular distribution of complexes: 333 nM
Method: Soluble streptavidin-cyanin 3 and streptavidin-cyanin 5 (Strept-Cy^3 and Strept-Cy^5, AMERSHAM) were mixed with 4 molar equivalents of biotinylated maurocalcine (1 mM) or biotinylated maurocalcine-derived peptide, in phosphate buffer (PBS, in mM: 136 NaCl, 1.47 Na2HPO4, 2.6 KCl, 1 CaCl2, 0.5 MgCl2, pH 7.2), for 2 hours at 37° C. and in the dark.
The human embryonic kidney cells (HEK 293 line, ATCC) are divided before confluence, by treatment with trypsin (1%), and are maintained in DMEM medium (INVITROGEN) containing 10% of inactivated fetal calf serum (INVITROGEN) and 1% of penicillin/streptomycin (INVITROGEN), in a CO2 incubator (5%). The culture medium is changed every 2 days.
The cells were incubated with maurocalcine and the derived peptides, biotinylated and complexed with streptavidin-cyanin 3 or with streptavidin-cyanin 5, […], in the dark and at ambient temperature, for 30 minutes to 1 hour. After 3 washes in PBS, the cells are fixed at ambient temperature, in a paraformaldehyde solution (4%), for 10 min, in the dark, washed in PBS and incubated for one hour with FITC-conjugated concanavalin (MOLECULAR PROBES, 5 μg/ml) in order to label the plasma membrane, and TO-PRO-3 iodide (MOLECULAR PROBES, 1 μM) in order to label the nucleus. In order to label the cytoskeleton, the cells were fixed and permeabilized with ice-cold methanol, for 10 min, washed twice in PBS and incubated with a mouse anti-alpha-tubulin antibody (1:1000, SIGMA), for 2 hours. After two washes in PBS, the cells were incubated for one hour with an anti-mouse IgG secondary antibody conjugated to Alexa 488 (1:1000, MOLECULAR PROBES). The cultures were then mounted in Vectashield mounting medium (VECTOR LABORATORIES). Preparations were observed by laser scanning confocal microscopy, using a Leica TCS-SP2 control system. The Alexa-488 and Cy3 or propidium iodide (PI) fluorescences were excited sequentially and then recorded. The Cy3 fluorescence was excited using a 543 nm helium-neon laser beam and the fluorescence emission was recorded between 554 nm and 625 nm. The images were introduced into Adobe Photoshop 7.0.

HEK293 cells [2] = assay: Flow cytometry analysis of cellular penetration of complexes (trypsin/heparin treatment); assay type: cell-based, human; conditions: 10 nM to 1 μM complexes
Method: The cells are incubated with maurocalcine and the derived peptides, biotinylated and complexed with […], at the final concentration of 100 nM in PBS, in the dark and at ambient temperature for 1 hour. After 2 washes in PBS (PBS, in mM: […], 6.84 Na2HPO4, 3.16 NaH2PO4, pH 7.2), and the cells were treated with trypsin (1 mg/ml, INVITROGEN), for 10 min at 37° C., in order to remove the extracellular complexes and the plasma-membrane-bound complexes. After the incubation with trypsin, the cell suspension was centrifuged at 500 g and the cells were resuspended in PBS containing 1 μg/ml of propidium iodide (SIGMA). […] The analysis was carried out on live cells, using a flow cytometer (FACScalibur, BECTON DICKINSON). The data were recorded and analyzed using appropriate software (CellQuest, BD BIOSCIENCES). The live cells were sorted according to their size and their granulosity (forward/side scattering), over a total of 10 000 events.
The analysis is carried out as described in Example 1. For the heparin treatment experiments, the complexes were prepared in a heparin solution (bovine intestine heparin, sodium salt, SIGMA) and the cells were washed twice with the heparin solution, before and after incubation with the complexes prepared in the same heparin solution.
The cellular penetration was analyzed by flow cytometry, on cells incubated with the MCab/Strept-Cy3 complexes, and then treated with trypsin, so as to remove the complexes bound to the plasma membrane by means of lipids, specific receptors or heparan sulfate glycosaminoglycan (HPSG). It has been shown that this method makes it possible to effectively study the entry of penetrating peptides into cells (Richard et al., J. Biol. Chem., 2003, 278, 585-590).

“MCab/Strept-Cy3: biotinylated maurocalcine, complexed with cyanin-3-labeled streptavidin” was tested, and the “efficiency of Ca2+ release in comparison with maurocalcine alone” value (RyR1 receptor) was “slightly reduced efficiency”, the “induction of Ca2+ release from sarcoplasmic reticulum vesicles” value (RyR1 receptor) was “induce Ca^2+ release” and the “entry into cells at decreased temperature” value (HEK293 cells [1]; 100 nM, 1 h, 4° C.) was “still penetrate into the cells”. The “effect of amiloride on entry of the complex” value (HEK293 cells [1]; 100 nM, 1 h, amiloride 3 mM) was “no effect on the entry of the complex into the cells”, the “effect of nystatin on entry of the complex” value (HEK293 cells [1]; 100 nM, 1 h, nystatin 50 μM) was “no effect on the entry of the complex into the cells” and the “cellular distribution of complexes” value (HEK293 cells [1]; 2 hours of incubation) was “mainly present in the cytoplasm”. For the same substance, the “cellular distribution of complexes” value (HEK293 cells [1]; between 4 hours and 24 hours of incubation) was “mainly perinuclear and colocalizes with the nucleus” and the saturability of penetration (HEK293 cells [2]) was “cannot be saturated”.
